Reference: US20250101039A1, “RIFAMYCIN DERIVATIVES FOR THE TREATMENT OF DISEASES” (priority 2022, published 2025)
Converted amounts (≈) assume the structure as drawn. Read-outs that look alike come from different tables or passages of the source.

Tests used:
A. baumannii = assay: MIC by broth microdilution, A. baumannii (WT); format: cell-based, Acinetobacter baumannii
S. aureus = assay: MIC by broth microdilution, S. aureus; format: cell-based, Staphylococcus aureus; conditions: for MIC S. aureus: cation adjusted Mueller Hinton broth, 35° C. 20 hours
[1] = tested on: M. tuberculosis (H37Rv strain ATCC 27294); format: cell-based, Mycobacterium tuberculosis
[2] = tested on: M. smegmatis (strain ATCC 700084); assay: MIC, M. smegmatis (BacTiter-Glo); format: cell-based, Mycobacterium smegmatis; conditions: strain ATCC 700084, Middlebrook 7H9 + ADC, 90% growth inhibition, 20 hours
A. baumannii RpoB H535L = assay: microbe, parasite or virus in culture; format: cell-based, Acinetobacter baumannii; conditions: Table 4, RPMI + FCS
[3] = tested on: M. abscessus (strain ATCC 19977); assay: MIC by broth microdilution, M. abscessus; format: cell-based, Mycobacterium abscessus; conditions: strain ATCC 19977, Middlebrook 7H9 broth + ADC
[4] = tested on: H. influenzae (strain ATCC 49247); assay: MIC by broth microdilution, H. influenzae; format: cell-based, Hemophilus influenzae; conditions: strain ATCC 49247, Hemophilus test medium broth
[5] = tested on: Enterococcus faecalis (strain ATCC 51575); assay: MIC by broth microdilution, E. faecalis; format: cell-based; conditions: strain ATCC 51575, cation adjusted Mueller Hinton broth
[6] = tested on: S. pneumoniae (strain ATCC 49619); assay: MIC by broth microdilution, S. pneumoniae; format: cell-based, Streptococcus pneumoniae; conditions: strain ATCC 49619, cation adjusted Mueller Hinton broth + 5% laked horse blood
[7] = tested on: Staphylococcus epidermidis (strain ATCC 12228); assay: MIC by broth microdilution, S. epidermidis; format: cell-based; conditions: strain ATCC 12228, cation adjusted Mueller Hinton broth
A. baumannii RpoB H535C = assay: microbe, parasite or virus in culture; format: cell-based, Acinetobacter baumannii; conditions: Table 4, RPMI + FCS
[8] = tested on: S. pyogenes (strain IHMA 1117021); assay: MIC by broth microdilution, S. pyogenes; format: cell-based, Streptococcus pyogenes; conditions: strain IHMA 1117021, cation adjusted Mueller Hinton broth + 5% laked horse blood
[9] = tested on: Enterococcus faecium (strain NCTC 12204); assay: MIC by broth microdilution, E. faecium; format: cell-based; conditions: strain NCTC 12204, cation adjusted Mueller Hinton broth
A. baumannii RpoB H535Q = assay: microbe, parasite or virus in culture; format: cell-based, Acinetobacter baumannii; conditions: Table 4, RPMI + FCS
[10] = RPMI medium supplemented with 10% FCS, 35° C. 20 hours

| SMILES | MIC A. baumannii (A. baumannii; [10]) | MIC S. aureus (S. aureus) | other results |
| --- | --- | --- | --- |
| CO[C@H]1/C=C/O[C@@]2(C)Oc3c(C)c(O)c4c(c3C2=O)C2=NC3(CC5CCC(C3)N5)NC2=C(NC(=O)/C(C)=C\C=C\[C@H](C)[C@H](O)[C@@H](C)[C@@H](O)[C@@H](C)[C@H](OC(C)=O)[C@@H]1C)C4=O (single isomer, unassigned) [Compound 12A] | 0.06 µg/mL (≈ 0.0734 µM) | 0.06 µg/mL (≈ 0.0734 µM) | – |
| CO[C@H]1/C=C/O[C@@]2(C)Oc3c(C)c(O)c4c(c3C2=O)C2=NC3(CC5CCC(C3)N5C)NC2=C(NC(=O)/C(C)=C\C=C\[C@H](C)[C@H](O)[C@@H](C)[C@@H](O)[C@@H](C)[C@H](OC(C)=O)[C@@H]1C)C4=O (single isomer, unassigned) [Compound 13A] | 0.03 µg/mL (≈ 0.0361 µM) | – | MIC (S. aureus; Staphylococcus aureus, 20 h, read-out: MIC S. aureus, cation adjusted Mueller Hinton broth, 35° C. 20 hours): 0.03 µg/mL (≈ 0.0361 µM) |
| CO[C@H]1/C=C/O[C@@]2(C)Oc3c(C)c(O)c4c(c3C2=O)C2=NC3(CC5CCC(C3)N5C(C)C)NC2=C(NC(=O)/C(C)=C\C=C\[C@H](C)[C@H](O)[C@@H](C)[C@@H](O)[C@@H](C)[C@H](OC(C)=O)[C@@H]1C)C4=O (single isomer, unassigned) [Compound 14A] | 0.25 µg/mL (≈ 0.291 µM) | 0.016 µg/mL (≈ 0.0186 µM) | – |
| CO[C@H]1/C=C/O[C@@]2(C)Oc3c(C)c(O)c4c(c3C2=O)C2=NC3(CC5CCC(C3)N5C(C)C)NC2=C(NC(=O)/C(C)=C\C=C\[C@H](C)[C@H](O)[C@@H](C)[C@@H](O)[C@@H](C)[C@H](OC(C)=O)[C@@H]1C)C4=O (single isomer, unassigned) [Compound 14B] | 0.016 µg/mL (≈ 0.0186 µM) | 0.008 µg/mL (≈ 0.00931 µM) | – |
| CCCN1C2CCC1CC1(C2)N=C2C(=C3NC(=O)/C(C)=C\C=C\[C@H](C)[C@H](O)[C@@H](C)[C@@H](O)[C@@H](C)[C@H](OC(C)=O)[C@H](C)[C@@H](OC)/C=C/O[C@@]4(C)Oc5c(C)c(O)c(c2c5C4=O)C3=O)N1 (single isomer, unassigned) [Compound 20A] | 0.25 µg/mL (≈ 0.291 µM) | 0.008 µg/mL (≈ 0.00931 µM) | – |
| CCCN1C2CCC1CC1(C2)N=C2C(=C3NC(=O)/C(C)=C\C=C\[C@H](C)[C@H](O)[C@@H](C)[C@@H](O)[C@@H](C)[C@H](OC(C)=O)[C@H](C)[C@@H](OC)/C=C/O[C@@]4(C)Oc5c(C)c(O)c(c2c5C4=O)C3=O)N1 (single isomer, unassigned) [Compound 20B] | < 0.002 µg/mL | 0.004 µg/mL (≈ 0.00466 µM) | MIC M. tuberculosis [1]: 0.01 µg/mL (≈ 0.0116 µM); MIC M. smegmatis [2]: 0.29 µg/mL; A. baumannii MIC, RpoB H535L (A. baumannii RpoB H535L): 0.5 µg/mL; MIC M. abscessus [3]: 8 µg/mL; MIC H. influenzae [4]: 0.25 µg/mL (≈ 0.291 µM); MIC E. faecalis [5]: 1 µg/mL (≈ 1.16 µM); MIC S. pneumoniae [6]: < 0.002 µg/mL; MIC S. epidermidis [7]: < 0.002 µg/mL; A. baumannii MIC, RpoB H535C (A. baumannii RpoB H535C): 0.008 µg/mL; MIC S. pyogenes [8]: < 0.002 µg/mL; MIC E. faecium [9]: 0.5 µg/mL (≈ 0.582 µM); A. baumannii MIC, WT (A. baumannii; Table 4, RPMI + FCS): ≤0.002 µg/mL; A. baumannii MIC, RpoB H535Q (A. baumannii RpoB H535Q): 0.004 µg/mL |
| CO[C@H]1/C=C/O[C@@]2(C)Oc3c(C)c(O)c4c(c3C2=O)C2=NC3(NC2=C(NC(=O)/C(C)=C\C=C\[C@H](C)[C@H](O)[C@@H](C)[C@@H](O)[C@@H](C)[C@H](OC(C)=O)[C@@H]1C)C4=O)C1CC2CC3CN(C2)C1 (stereo partly drawn) [Compound 3A] | – | 0.008 µg/mL (≈ 0.00949 µM) | MIC A. baumannii (A. baumannii): 0.25 µg/mL (≈ 0.297 µM) |
| CCCN1CC2CN(CCC)CC(C1)C21N=C2C(=C3NC(=O)/C(C)=C\C=C\[C@H](C)[C@H](O)[C@@H](C)[C@@H](O)[C@@H](C)[C@H](OC(C)=O)[C@H](C)[C@@H](OC)/C=C/O[C@@]4(C)Oc5c(C)c(O)c(c2c5C4=O)C3=O)N1 (stereo partly drawn) [Compound 4] | 0.03 µg/mL (≈ 0.0327 µM) | 0.016 µg/mL (≈ 0.0175 µM) | – |
| CO[C@H]1/C=C/O[C@@]2(C)Oc3c(C)c(O)c4c(c3C2=O)C2=NC3(NC2=C(NC(=O)/C(C)=C\C=C\[C@H](C)[C@H](O)[C@@H](C)[C@@H](O)[C@@H](C)[C@H](OC(C)=O)[C@@H]1C)C4=O)C1CNCC3CNC1 (stereo partly drawn) [Compound 17] | 0.5 µg/mL (≈ 0.601 µM) | 0.008 µg/mL (≈ 0.00962 µM) | – |
| CO[C@H]1/C=C/O[C@@]2(C)Oc3c(C)c(O)c4c(c3C2=O)C2=NC3(NC2=C(NC(=O)/C(C)=C\C=C\[C@H](C)[C@H](O)[C@@H](C)[C@@H](O)[C@@H](C)[C@H](OC(C)=O)[C@@H]1C)C4=O)C1CN2CC3CN(C1)C2 (stereo partly drawn) [Compound 19] | 1 µg/mL (≈ 1.18 µM) | 0.004 µg/mL (≈ 0.00474 µM) | – |
